Measurements reported in US6063612A, “Antiviral reagents based on RNA-binding proteins” (priority 1991, dated 2000).

How the values were obtained:
[1] = tested on: HIV-1 TAR RNA; assay: RNA cleavage reaction, HIV-1 TAR substrate; assay type: biochemical; conditions: 40 μM, not bound to RNA-binding protein (control)
Protocol: The above described polypeptides were tested for their ability to cleave RNA substrates which contained cognate binding sites. Typically, RNA target molecules containing the binding sites were 5'-end-labeled, purified on denaturing polyacrylamide gels, and annealed for use as substrates for cleavage (Example 2). A typical cleavage reaction contained 10^3 cpm of end-labeled RNA and 40-100 ng of polypeptide. Example 4A describes RNA cleavage reactions utilizing the TAT24C-phen polypeptide. The target RNA was incubated with TAT24C-phen at 25° C. for 10 min before the cleavage was initiated by adding CuSO4 and mercaptopropionic acid. After incubating for a given period of time, the reaction was stopped by the addition of 2,9-dimethyl-1,10-phenanthroline. RNAs were then isolated and analyzed on denaturing 15% sequencing gels. […] This is an expected site of cleavage based on binding of the polypeptide at the three-nucleotide bulge. A possible secondary cleavage site may be due to flexibility of the phenothroline-containing protein of the polypeptide, allowing it to reach to stem on the other side of the binding site.
Cleavage reactions using the polypeptide-cleaving reagents of the present invention were typically performed as follows. […]
RNAs from all reactions were ethanol precipitated and analyzed on a denaturing (8.3 M urea) 15% polyacrylamide gel. […]

[2] = tested on: wild-type TAR (wt-TAR) site; conditions: RNA containing the TAR site; cited from earlier work
[3] = tested on: HIV-1 LTR-linked gene expression; conditions: TAT protein taken up by cells; cited from earlier work

For Cu(II)-1,10-phenanthroline, the “cleavage pattern on HIV-1 TAR by free Cu(II)-phenanthroline” value [1] was “cleaves everywhere, but the unpaired bases at the loop (especially G32) and the bulge are most reactive”.

For “synthetic 14-residue polypeptide: synthetic polypeptide spanning the basic region, amino acid residues 48-61 of the TAT protein (GRKKRRQRRRAHQN; UniProt P04608 48-61, looked up, fragment)”, the “binding to TAR-RNA (in words)” value [2] is given as “bound TAR-RNA as well”.

B1: TAT protein: HIV-1 encoded 86 amino acid transactivator protein (protein)
chain: MEPVDPRLEPWKHPGSQPKTACTNCYCKKCCFHCQVCFITKALGISYGRKKRRQRRRPPQGSQTHQVSLSKQPTSQSRGDPTGPKE
For B1, the “effect on HIV-1 LTR-linked gene expression” value [3] is given as “specifically activates HIV-1 LTR-linked gene expression”.
